According to patent US7138361B2, “Herbicidal heterocycles” (E. I. du Pont de Nemours and Company, priority 2000, dated 2006):

Legend:
Type in all cases: in vivo
[1] = system: Surinam grass (Brachiaria decumbens); test: Test B postemergence; settings: 13 to 15 days
Procedure, shortened: (§1)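 Ratings on a 0 to 100 visual scale (100 complete control) compare treated plants with controls 13 to 15 days after application. Treatments were pre- or postemergence sprays of compound in non-phytotoxic solvent with surfactant.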

[2] = system: barnyardgrass (Echinochloa crus-galli); test: Test B postemergence; settings: 13 to 15 days
Procedure, shortened: as §1

[3] = system: blackgrass (Alopecurus myosuroides); test: Test B postemergence; settings: 13 to 15 days
Procedure, shortened: as §1

[4] = system: cocklebur (Xanthium strumarium); test: Test B postemergence; settings: 13 to 15 days
Procedure, shortened: as §1

corn (Zea mays) [5] = test: Test B postemergence; settings: 13 to 15 days
Procedure, shortened: as §1

[6] = system: crabgrass (Digitaria sanguinalis); test: Test B postemergence; settings: 13 to 15 days
Procedure, shortened: as §1

[7] = system: giant foxtail (Setaria faberii); test: Test B postemergence; settings: 13 to 15 days
Procedure, shortened: as §1

[8] = system: lambsquarters (Chenopodium album); test: Test B postemergence; settings: 13 to 15 days
Procedure, shortened: as §1

[9] = system: morning glory (Ipomoea hederacea); test: Test B postemergence; settings: 13 to 15 days
Procedure, shortened: as §1

[10] = system: pigweed (Amaranthus retroflexus); test: Test B postemergence; settings: 13 to 15 days
Procedure, shortened: as §1

[11] = system: velvetleaf (Abutilon theophrasti); test: Test B postemergence; settings: 13 to 15 days
Procedure, shortened: as §1

[12] = system: wheat (Triticum aestivum); test: Test B postemergence; settings: 13 to 15 days
Procedure, shortened: as §1

wild oat (Avena fatua) = test: Test B postemergence; settings: 13 to 15 days
Procedure, shortened: as §1

[13] = system: Surinam grass (Brachiaria decumbens); test: Test B preemergence; settings: scale 0 to 100, 0 no effect, 100 complete control
Procedure, shortened: as §1

[14] = system: barnyardgrass (Echinochloa crus-galli); test: Test B preemergence; settings: scale 0 to 100, 0 no effect, 100 complete control
Procedure, shortened: as §1

[15] = system: cocklebur (Xanthium strumarium); test: Test B preemergence; settings: preemergence; Rate 125 g/ha; scale 0 to 100, 0 no effect, 100 complete control
Procedure, shortened: as §1

corn (Zea mays) [16] = test: Test B preemergence; settings: scale 0 to 100, 0 no effect, 100 complete control
Procedure, shortened: as §1

[17] = system: crabgrass (Digitaria sanguinalis); test: Test B preemergence; settings: scale 0 to 100, 0 no effect, 100 complete control
Procedure, shortened: as §1

[18] = system: giant foxtail (Setaria faberii); test: Test B preemergence; settings: scale 0 to 100, 0 no effect, 100 complete control
Procedure, shortened: as §1

[19] = system: lambsquarters (Chenopodium album); test: Test B preemergence; settings: scale 0 to 100, 0 no effect, 100 complete control
Procedure, shortened: as §1

[20] = system: morning glory (Ipomoea hederacea); test: Test B preemergence; settings: Preemergence, Rate 500 g/ha; scale 0 to 100, 0 no effect, 100 complete control
Procedure, shortened: as §1

[21] = system: pigweed (Amaranthus retroflexus); test: Test B preemergence; settings: Preemergence, Rate 500 g/ha; scale 0 to 100, 0 no effect, 100 complete control
Procedure, shortened: as §1

rice (Oryza saliva) = test: Test B preemergence; settings: Preemergence, Rate 500 g/ha; scale 0 to 100, 0 no effect, 100 complete control
Procedure, shortened: as §1

[22] = system: velvetleaf (Abutilon theophrasti); test: Test B preemergence; settings: Preemergence, Rate 500 g/ha; scale 0 to 100, 0 no effect, 100 complete control
Procedure, shortened: as §1

[23] = system: smallflower flatsedge (Cyperus difformis); test: Test C flooded paddy test; settings: for Flatsedge plant response rating: Flooded Paddy, scale 0 to 100, 0 no effect, 100 complete control; for Plant response rating, Flatsedge: flooded paddy test, scale 0 to 100 (0 no effect, 100 complete control)
Procedure, shortened: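 2-leaf-stage plants, flooded paddy; treated; greenhouse 12–14 days; compared with controls by eye; rated 0–100 (0 none, 100 complete control).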

Nightshade = test: Test C preemergence; settings: Rate 250 g/ha, visual evaluation after 12 to 14 days
Sunflower = test: Test C preemergence; settings: Rate 250 g/ha, visual evaluation after 12 to 14 days
[24] = Rate 125 g/ha, scale 0 (no effect) to 100 (complete control)
[25] = Rate 500 g/ha, scale 0 to 100, 0 is no effect, 100 is complete control

For `CC(C)c1ccn(C2SCN(c3cccc(OC(F)F)c3)C2=O)n1` (stereo not shown) [Compound 44], the “Plant response rating, Surinam grass” value [1, 24] was 0, the “Plant response rating, Surinam grass” value [1, 25] was 0 and the “Plant response rating, Barnyardgrass” value [2, 24] was 40. The “Plant response rating, Barnyardgrass” value [2, 25] was 100, the “Plant response rating, Blackgrass” value [3, 24] was 0 and the “Plant response rating, Blackgrass” value [3, 25] was 0. For the same compound, the “Plant response rating, Cocklebur” value [4, 24] was 20, the “Plant response rating, Cocklebur” value [4, 25] was 70 and the “Plant response rating, Corn” value (corn (Zea mays) [5]; [24]) was 0. For the same compound, the “Plant response rating, Corn” value (corn (Zea mays) [5]; [25]) was 20, the “Plant response rating, Crabgrass” value [6, 24] was 0 and the “Plant response rating, Crabgrass” value [6, 25] was 40. The “Plant response rating, Foxtail, Giant” value [7, 24] was 0, the “Plant response rating, Foxtail, Giant” value [7, 25] was 60 and the “Plant response rating, Lambsquarters” value [8, 24] was 20. For the same compound, the “Plant response rating, Lambsquarters” value [8, 25] was 60, the “Plant response rating, Morningglory” value [9, 24] was 0 and the “Plant response rating, Morningglory” value [9, 25] was 0. For the same compound, the “Plant response rating, Pigweed” value [10, 24] was 0, the “Plant response rating, Pigweed” value [10, 25] was 0 and the “Plant response rating, Velvetleaf” value [11, 24] was 0. The “Plant response rating, Velvetleaf” value [11, 25] was 0, the “Plant response rating, Wheat” value [12, 24] was 0 and the “Plant response rating, Wheat” value [12, 25] was 0. The “Plant response rating, Wild Oat” value (wild oat (Avena fatua); [24]) was 0, the “Plant response rating, Wild Oat” value (wild oat (Avena fatua); [25]) was 0 and the “Plant response rating, Surinam grass” value ([13]; Preemergence, Rate 500 g/ha) was 100. For the same compound, the “Plant response rating, Surinam grass” value ([13]; preemergence, Rate 125 g/ha) was 0, the “Plant response rating, Barnyardgrass” value ([14]; Preemergence, Rate 500 g/ha) was 100 and the “Plant response rating, Barnyardgrass” value ([14]; preemergence, Rate 125 g/ha) was 80. The “Plant response rating, Cocklebur” value [15] was 0, the “Plant response rating, Corn” value (corn (Zea mays) [16]; Preemergence, Rate 500 g/ha) was 20 and the “Plant response rating, Corn” value (corn (Zea mays) [16]; preemergence, Rate 125 g/ha) was 0. The “Plant response rating, Crabgrass” value ([17]; Preemergence, Rate 500 g/ha) was 100, the “Plant response rating, Crabgrass” value ([17]; preemergence, Rate 125 g/ha) was 0 and the “Plant response rating, Foxtail, Giant” value ([18]; Preemergence, Rate 500 g/ha) was 100. For the same compound, the “Plant response rating, Foxtail, Giant” value ([18]; preemergence, Rate 125 g/ha) was 10, the “Plant response rating, Lambsquarters” value ([19]; Preemergence, Rate 500 g/ha) was 100 and the “Plant response rating, Lambsquarters” value ([19]; preemergence, Rate 125 g/ha) was 100. For the same compound, the “Plant response rating, Morningglory” value [20] was 0, the “Plant response rating, Pigweed” value [21] was 100 and the “Plant response rating, Rice” value (rice (Oryza saliva)) was 100. For the same compound, the “Plant response rating, Velvetleaf” value [22] was 0, the “Flatsedge plant response rating” value ([23]; Rate 250 g/ha) was 100 and the “Flatsedge plant response rating” value ([23]; Rate 500 g/ha) was 100. The “Plant response rating, Flatsedge” value ([23]; Rate 62 g/ha) was 90, the “Plant response rating, Flatsedge” value ([23]; Rate 125 g/ha) was 100 and the “Plant response rating (0 to 100), Nightshade” value (Nightshade) was 0. For the same compound, the “Plant response rating (0 to 100), Sunflower” value (Sunflower) was 20.
